Results reported in PubChem BioAssay AID1919003 (Molecular Pharmacology Branch, DTP, NCI, 2023).

System: 786-0 complex spheroids with HUVEC/MSC, growth % test/control
Test: Anticancer human tumor 786-0 cell line growth inhibition [AhR];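 further: compound exposure lasted seven days before the read-out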
Conditions: for IC50: curve of first compound; for viability, T/C: stronger effect = lower value
Outline: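 Complex tumor spheroids co-cultured with HUVEC and human MSC stroma; AhR antagonists tested in combination with standard-of-care and investigational agents. Top concentration at or near clinical Cmax (else 10 microM), half-log dilutions; growth expressed as percent test/control.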

[1] = second compound 0.1 µM, first compound 0.0316 µM
[2] = second compound 0.1 µM, first compound 0.1 µM
[3] = second compound 0.1 µM, first compound 0.316 µM
[4] = second compound 0.1 µM, first compound 1 µM
[5] = second compound 0.1 µM, first compound 3.16 µM
[6] = second compound 0.1 µM, first compound 10 µM
[7] = second compound 0.316 µM, first compound 0.0316 µM
[8] = second compound 0.316 µM, first compound 0.1 µM
[9] = second compound 0.316 µM, first compound 0.316 µM
[10] = second compound 0.316 µM, first compound 1 µM
[11] = second compound 0.316 µM, first compound 3.16 µM
[12] = second compound 0.316 µM, first compound 10 µM
[13] = second compound 1 µM, first compound 0.0316 µM
[14] = second compound 1 µM, first compound 0.1 µM
[15] = second compound 1 µM, first compound 0.316 µM
[16] = second compound 1 µM, first compound 1 µM
[17] = second compound 1 µM, first compound 3.16 µM
[18] = second compound 1 µM, first compound 10 µM
[19] = second compound 3.16 µM, first compound 0.0316 µM
[20] = second compound 3.16 µM, first compound 0.1 µM
[21] = second compound 3.16 µM, first compound 0.316 µM
[22] = second compound 3.16 µM, first compound 1 µM
[23] = second compound 3.16 µM, first compound 3.16 µM
[24] = second compound 3.16 µM, first compound 10 µM
[25] = second compound 10 µM, first compound 0.0316 µM
[26] = second compound 10 µM, first compound 0.1 µM
[27] = second compound 10 µM, first compound 0.316 µM
[28] = second compound 10 µM, first compound 1 µM
[29] = second compound 10 µM, first compound 3.16 µM
[30] = second compound 10 µM, first compound 10 µM

Row | Structure (SMILES) | IC50 (second compound 0.1 µM) [µM] | IC50 (second compound 0.316 µM) [µM] | IC50 (second compound 1 µM) [µM] | IC50 (second compound 3.16 µM) [µM] | IC50 (second compound 10 µM) [µM] | viability, T/C [1] [%] | viability, T/C [2] [%] | viability, T/C [3] [%] | viability, T/C [4] [%] | viability, T/C [7] [%] | viability, T/C [8] [%] | viability, T/C [9] [%] | viability, T/C [10] [%] | viability, T/C [13] [%] | viability, T/C [14] [%] | viability, T/C [15] [%] | viability, T/C [16] [%] | viability, T/C [19] [%] | viability, T/C [20] [%] | viability, T/C [21] [%] | other results
1 | CC(C)c1c(-c2ccccc2)nc2c(C#N)c[nH]n2c1=O + CC(CO)NC(=O)c1cc(-c2ccc(Cl)cc2)nn(-c2cnn(C)c2)c1=O | > 10 | > 10 | > 10 | > 10 | > 10 | 98 | 95.9 | 104 | 106 | 95 | 101 | 93.2 | 95.1 | 99.9 | 99.1 | 105 | 104 | 100 | 96.5 | 97.9 | viability, T/C [5]: 93.7%; viability, T/C [6]: 104%; viability, T/C [11]: 92.3%; viability, T/C [12]: 90%; viability, T/C [17]: 107%; viability, T/C [18]: 96.2%; viability, T/C [22]: 99.5%; viability, T/C [23]: 106%; viability, T/C [24]: 101%; viability, T/C [25]: 118%; viability, T/C [26]: 105%; viability, T/C [27]: 105%; viability, T/C [28]: 108%; viability, T/C [29]: 103%; viability, T/C [30]: 125%
2 | CC1COCCN1c1cc(-c2ccnn2C)c2ccnc(-c3ccn[nH]3)c2n1 (stereo not given) + CC(CO)NC(=O)c1cc(-c2ccc(Cl)cc2)nn(-c2cnn(C)c2)c1=O | 0.134 | 0.109 | 0.0983 | 0.0794 | 0.0511 | 106 | 63.5 | 11.1 | 3.76 | 105 | 53.3 | 7.31 | 3.22 | 104 | 49 | 8.48 | 3.85 | 103 | 36.7 | 6.89 | viability, T/C (second compound 0.1 µM, first compound 0.00316 µM): 100%; viability, T/C (second compound 0.1 µM, first compound 0.01 µM): 100%; viability, T/C (second compound 0.316 µM, first compound 0.00316 µM): 112%; viability, T/C (second compound 0.316 µM, first compound 0.01 µM): 103%; viability, T/C (second compound 1 µM, first compound 0.00316 µM): 97.6%; viability, T/C (second compound 1 µM, first compound 0.01 µM): 110%; viability, T/C (second compound 3.16 µM, first compound 0.00316 µM): 112%; viability, T/C (second compound 3.16 µM, first compound 0.01 µM): 114%; viability, T/C [22]: 3.57%; viability, T/C (second compound 10 µM, first compound 0.00316 µM): 116%; viability, T/C (second compound 10 µM, first compound 0.01 µM): 109%; viability, T/C [25]: 78.5%; viability, T/C [26]: 10.1%; viability, T/C [27]: 2.89%; viability, T/C [28]: 2.73%
3 | COc1ccc([C@@H](O)c2cc(-c3ncnc4cc(N5CCOCC5)ccc34)c(F)cc2Cl)nn1 + CC(CO)NC(=O)c1cc(-c2ccc(Cl)cc2)nn(-c2cnn(C)c2)c1=O | > 10 | > 10 | > 10 | > 10 | > 10 | 99.5 | 109 | 111 | 115 | 102 | 107 | 118 | 106 | 110 | 114 | 110 | 113 | 102 | 112 | 114 | viability, T/C [5]: 117%; viability, T/C [6]: 85.2%; viability, T/C [11]: 108%; viability, T/C [12]: 91.2%; viability, T/C [17]: 114%; viability, T/C [18]: 91.6%; viability, T/C [22]: 111%; viability, T/C [23]: 107%; viability, T/C [24]: 83.2%; viability, T/C [25]: 117%; viability, T/C [26]: 122%; viability, T/C [27]: 115%; viability, T/C [28]: 115%; viability, T/C [29]: 100%; viability, T/C [30]: 78%
